# Experimental data from patent US8466131B2, “Ligands specific for cannabinoid receptor subtype 2” (University of Pittsburgh—of the Commonwealth System of …, priority 2007, dated 2013).
# pKi: −log10 of the molar value. Entries after “also recorded” stand apart in the source; their conditions may differ.
# Legend:
# CB2 receptor = molecular target: T1, CB2 receptor (Homo sapiens, UniProt P34972); assay: forskolin-stimulated cAMP assay in CB2 receptor transfected CHO-K1 cells; type: cell-based; details: for effect on CB2 agonist WIN55,212-2 response (cAMP): 1 μM antagonist, with increasing WIN55,212-2, 30 min prior to forskolin (20 μM), FIG. 2; for functional mode of ligand alone (cAMP): ligand alone at increasing concentrations 30 min prior to forskolin (20 μM), FIG. 3
# T1 construct: expressed in transfected cells; host or cells: CHO-K1
# T1 sequence (P34972 whole entry): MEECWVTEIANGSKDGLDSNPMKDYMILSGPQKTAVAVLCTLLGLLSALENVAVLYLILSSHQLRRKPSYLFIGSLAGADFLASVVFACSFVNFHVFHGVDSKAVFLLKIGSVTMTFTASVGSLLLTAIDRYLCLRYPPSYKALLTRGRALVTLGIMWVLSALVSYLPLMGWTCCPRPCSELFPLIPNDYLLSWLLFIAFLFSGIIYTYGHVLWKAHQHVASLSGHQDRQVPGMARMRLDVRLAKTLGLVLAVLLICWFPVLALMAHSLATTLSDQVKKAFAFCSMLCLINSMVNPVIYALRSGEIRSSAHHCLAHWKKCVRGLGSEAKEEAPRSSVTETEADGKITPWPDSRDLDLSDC
# Experimental: FIG. 2. Confluentially growing CB2 receptor transfected […] CHO-K1 cells were stimulated with forskolin (20 μM) and analyzed for cAMP expression after 30 min. The CB2 agonist WIN55, 212-2 was incubated at increasing concentrations 30 min prior to forskolin stimulation alone or in presence of 1 μM of the antagonists AM630 and the compound of Formula II.
# FIG. 3. Confluentially growing CB2 receptor transfected […] CHO-K1 cells were stimulated with forskolin (20 μM) and analyzed for cAMP expression after 30 minutes. CB2 ligands were incubated at increasing concentrations 30 minutes prior to forskolin stimulation.
# Cell-based Functional Bioassay Studies. […] Subsequently, further receptor biological studies were performed: i) to examine/assess the G-protein effects of the compound of Formula II upon CB2 receptor binding and ii) to test the compound of Formula II for anti-inflammatory effects.
# CB2 cannabinoid receptor = molecular target: T2, CB2 cannabinoid receptor (Mus musculus, UniProt P47936); assay: [3H]-CP-55,940 radiometric competition binding assay, CB2 (mouse spleen membrane); details: displacement of 3H-CP 55940, mouse spleen membrane; read-out: CB2 binding affinity (Ki)
# T2 construct: from tissue; host or cells: frozen mouse spleen membranes
# T2 sequence (P47936 whole entry): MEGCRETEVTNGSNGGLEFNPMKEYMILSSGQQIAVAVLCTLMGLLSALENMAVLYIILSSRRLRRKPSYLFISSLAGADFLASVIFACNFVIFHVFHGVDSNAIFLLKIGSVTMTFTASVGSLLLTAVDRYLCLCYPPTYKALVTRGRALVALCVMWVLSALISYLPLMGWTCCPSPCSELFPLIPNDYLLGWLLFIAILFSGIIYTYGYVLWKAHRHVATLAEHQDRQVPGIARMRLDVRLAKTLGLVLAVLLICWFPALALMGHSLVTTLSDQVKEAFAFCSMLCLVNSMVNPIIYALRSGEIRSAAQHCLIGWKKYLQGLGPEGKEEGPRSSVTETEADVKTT
# Experimental: (§1) In-vitro Bio-validation Experiment. To biologically validate the screened hit compounds above, in-vitro [^3H]-radioactive CB ligand binding assays were carried out to determine the CB receptor binding affinity (Ki) of the screened ligands by displacing [^3H]-CP-55,940. The compound of Formula II was obtained from National Cancer Institute (NCI). For each assay, a positive control with a known ligand (SR-141716A for CB1 and SR-144528 for CB2) was run to ensure the reliability of the assay.
# For CB2 receptor binding studies, membranes were prepared from frozen mouse spleen. […]
# (§2) The experiments were conducted based on reported procedures. […] 1999, 1(3):article 4; Abadji et al., J. Med. Chem. 1994, 37(120:1889-1893; and Abadji et al., J. Neurochem. 1999, 72(5):2032-38. Thus, the competition binding assay was performed using [3H]-CP-55,940 (1 nM) as a radioligand for the CB1 or CB2 cannabinoid receptor (rate brain or mouse spleen membranes), at 30° C. in 96-well microtiter plates, 50 μg of membrane each well re-suspended in 200 μl (final volume) binding buffer (50 mM Tris-HCl, 2.5 mM EGTA, 3 mM MgCl2, 0.1% bovine serum albumin, pH 7.4). The tested compounds were presented at varying concentrations, and the nonspecific binding was determined in the presence of 10 μM CP-55,940 or HU-210. […] The Ki values were calculated by using GraphPad Prism 5.0 (GraphPad Software, Inc.).
# CB1 cannabinoid receptor = molecular target: T3, CB1 cannabinoid receptor (Rattus norvegicus, UniProt P20272); assay: [3H]-CP-55,940 radiometric competition binding assay, CB1 (rat forebrain membrane); details: displacement of 3H-CP 55940, rat forebrain membrane; read-out: CB1 binding affinity (Ki)
# T3 construct: from tissue; host or cells: rat forebrain membranes
# T3 sequence (P20272 whole entry): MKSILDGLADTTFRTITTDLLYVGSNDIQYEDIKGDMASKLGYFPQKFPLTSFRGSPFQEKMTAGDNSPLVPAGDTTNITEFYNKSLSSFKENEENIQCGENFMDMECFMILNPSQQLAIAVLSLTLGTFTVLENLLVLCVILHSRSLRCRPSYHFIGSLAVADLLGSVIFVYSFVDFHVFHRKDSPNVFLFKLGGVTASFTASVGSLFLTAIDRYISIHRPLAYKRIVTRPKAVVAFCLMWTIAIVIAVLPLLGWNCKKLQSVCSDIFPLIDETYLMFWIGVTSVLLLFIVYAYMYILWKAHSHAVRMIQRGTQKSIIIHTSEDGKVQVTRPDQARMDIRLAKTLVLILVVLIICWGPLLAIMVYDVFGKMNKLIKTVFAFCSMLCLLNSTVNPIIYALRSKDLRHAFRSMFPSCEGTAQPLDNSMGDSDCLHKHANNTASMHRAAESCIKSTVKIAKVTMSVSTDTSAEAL
# Experimental: as §1
# For CB1 receptor binding studies, rat forebrain membranes were prepared following the reported procedures. […]
# as §2
molecule,measurement,setting,value
N/C(=N\Cc1ccccc1)C(/N=N/c1ccccc1)C(=O)NCc1ccccc1 (centres unmarked) [Formula II],effect on Go signaling,CB2 receptor,does not affect Go signaling
same,"effect on CB2 agonist WIN55,212-2 response (cAMP)",CB2 receptor,"inhibits the effect of WIN55,212-2; also recorded: antagonist like the known CB2 antagonist AM630 (but weaker)"
same,concentration at which compound becomes an agonist (cAMP),"CB2 receptor; FIG. 3, running text",~10 µM
same,concentration at which compound is a weak agonist (cAMP),CB2 receptor; FIG. 3 legend,> 7 mM
same,impact on Gi-proteins,CB2 receptor; at concentrations up to low μM,does not have an impact on Gi-proteins
same,functional mode of ligand alone (cAMP),CB2 receptor,weak agonist at high concentration; also recorded: not an inverse agonist
same,pKi,CB2 cannabinoid receptor,7.50
same,pKi,CB1 cannabinoid receptor,5.38
"COc1ccc(C(=O)c2c(C)n(CCN3CCOCC3)c3cc(I)ccc23)cc1 [AM630, reference compound]","effect on CB2 agonist WIN55,212-2 response (cAMP)",CB2 receptor,"inhibits the effect of WIN55,212-2"
same,functional mode of ligand alone (cAMP),CB2 receptor,inverse agonist
SR144528 [reference compound],functional mode of ligand alone (cAMP),CB2 receptor,inverse agonist
